Data from ChEMBL document CHEMBL1201861, “Genomics of Drug Sensitity in Cancer screening data, Wellcome Trust Sanger Institute”.
pIC50: −log10 of the molar value.

Experiments:
Test in all cases: cells
Type in all cases: functional, cell-based
Conditions in all cases: Homo sapiens
COLO-824 = tested on: COLO-824
Description: SANGER: Inhibition of human COLO-824 cell growth in a cell viability assay.

CTB-1 = tested on: CTB-1
Description: SANGER: Inhibition of human CTB-1 cell growth in a cell viability assay.

DU-4475 = tested on: DU-4475
Description: SANGER: Inhibition of human DU-4475 cell growth in a cell viability assay.

EC-GI-10 = tested on: EC-GI-10
Description: SANGER: Inhibition of human EC-GI-10 cell growth in a cell viability assay.

ES1 = tested on: ES1;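 also: growth inhibition of ES1 cells, read out with a cell viability assay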
Description: SANGER: Inhibition of human ES1 cell growth in a cell viability assay.

EW-1 = tested on: EW-1;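 also: growth inhibition of the human EW-1 cell line, read out by a cell viability assay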
Description: SANGER: Inhibition of human EW-1 cell growth in a cell viability assay.

EW-16 = tested on: EW-16;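 also: growth inhibition of human EW-16 cells, read out as cell viability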
Description: SANGER: Inhibition of human EW-16 cell growth in a cell viability assay.

GI-1 = tested on: GI-1;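 also: growth inhibition of human GI-1 cells, measured with a cell viability readout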
Description: SANGER: Inhibition of human GI-1 cell growth in a cell viability assay.

GOTO = tested on: GOTO;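 also: growth inhibition of GOTO cells, read out by a cell viability assay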
Description: SANGER: Inhibition of human GOTO cell growth in a cell viability assay.

HT = tested on: HT
Description: SANGER: Inhibition of human HT cell growth in a cell viability assay.

J-RT3-T3-5 = tested on: J-RT3-T3-5;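 also: cell viability assay measuring growth inhibition of human J-RT3-T3-5 cells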
Description: SANGER: Inhibition of human J-RT3-T3-5 cell growth in a cell viability assay.

JVM-2 = tested on: JVM-2;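 also: growth inhibition of JVM-2 cells determined by a cell viability assay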
Description: SANGER: Inhibition of human JVM-2 cell growth in a cell viability assay.

K562 = tested on: K562
Description: SANGER: Inhibition of human K-562 cell growth in a cell viability assay.

K5 = tested on: K5
Description: SANGER: Inhibition of human K5 cell growth in a cell viability assay.

KALS-1 = tested on: KALS-1;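 also: growth inhibition of KALS-1 cells, determined with a cell viability assay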
Description: SANGER: Inhibition of human KALS-1 cell growth in a cell viability assay.

KINGS-1 = tested on: KINGS-1;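 also: cell viability assay measuring suppression of KINGS-1 cell growth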
Description: SANGER: Inhibition of human KINGS-1 cell growth in a cell viability assay.

KLE = tested on: KLE;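 also: growth inhibition of human KLE cells, read out with a cell viability assay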
Description: SANGER: Inhibition of human KLE cell growth in a cell viability assay.

KM-H2 = tested on: KM-H2;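 also: growth inhibition of KM-H2 cells, read out by a cell viability assay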
Description: SANGER: Inhibition of human KM-H2 cell growth in a cell viability assay.

KNS-42 = tested on: KNS-42;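 also: growth inhibition of KNS-42 cells, read out with a cell viability assay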
Description: SANGER: Inhibition of human KNS-42 cell growth in a cell viability assay.

KS-1 = tested on: KS-1;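 also: growth inhibition of KS-1 cells, read out with a cell viability assay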
Description: SANGER: Inhibition of human KS-1 cell growth in a cell viability assay.

KURAMOCHI = tested on: KURAMOCHI;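 also: growth inhibition of KURAMOCHI cells, read out with a cell viability assay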
Description: SANGER: Inhibition of human KURAMOCHI cell growth in a cell viability assay.

LAN-6 = tested on: LAN-6;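 also: growth inhibition of LAN-6 cells, determined with a cell viability assay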
Description: SANGER: Inhibition of human LAN-6 cell growth in a cell viability assay.

LC-2-ad = tested on: LC-2-ad;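 also: growth inhibition of human LC-2-ad cells, read out with a cell viability assay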
Description: SANGER: Inhibition of human LC-2-ad cell growth in a cell viability assay.

LOX IMVI = tested on: LOX IMVI
Description: SANGER: Inhibition of human LOXIMVI cell growth in a cell viability assay.

LS-1034 = tested on: LS-1034
Description: SANGER: Inhibition of human LS-1034 cell growth in a cell viability assay.

MEG-01 = tested on: MEG-01;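 also: growth inhibition of MEG-01 cells, read out by a cell viability assay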
Description: SANGER: Inhibition of human MEG-01 cell growth in a cell viability assay.

MFH-ino = tested on: MFH-ino;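 also: growth inhibition of human MFH-ino cells, read out by a cell viability assay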
Description: SANGER: Inhibition of human MFH-ino cell growth in a cell viability assay.

MMAC-SF = tested on: MMAC-SF;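 also: growth inhibition of human MMAC-SF cells, read out with a cell viability assay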
Description: SANGER: Inhibition of human MMAC-SF cell growth in a cell viability assay.

MN-60 = tested on: MN-60;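 also: growth inhibition of the MN-60 cell line, determined with a cell viability assay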
Description: SANGER: Inhibition of human MN-60 cell growth in a cell viability assay.

MOLT-16 = tested on: MOLT-16;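 also: growth inhibition of human MOLT-16 cells, read out with a cell viability assay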
Description: SANGER: Inhibition of human MOLT-16 cell growth in a cell viability assay.

NCI-H1581 = tested on: NCI-H1581;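 also: cell growth inhibition read out by a viability assay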
Description: SANGER: Inhibition of human NCI-H1581 cell growth in a cell viability assay.

NCI-H1648 = tested on: NCI-H1648;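 also: cell viability assay measuring inhibition of NCI-H1648 cell growth, from the Sanger screening data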
Description: SANGER: Inhibition of human NCI-H1648 cell growth in a cell viability assay.

NCI-H1838 = tested on: NCI-H1838;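 also: growth inhibition of NCI-H1838 cells, determined with a cell viability readout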
Description: SANGER: Inhibition of human NCI-H1838 cell growth in a cell viability assay.

NCI-H209 = tested on: NCI-H209;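 also: growth inhibition of human NCI-H209 cells, measured by a cell viability assay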
Description: SANGER: Inhibition of human NCI-H209 cell growth in a cell viability assay.

NCI-H226 = tested on: NCI-H226;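 also: cell viability read-out used to gauge growth inhibition of the cells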
Description: SANGER: Inhibition of human NCI-H226 cell growth in a cell viability assay.

NCI-H69 = tested on: NCI-H69;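 also: growth inhibition of the cell line, read out with a cell viability assay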
Description: SANGER: Inhibition of human NCI-H69 cell growth in a cell viability assay.

NMC-G1 = tested on: NMC-G1;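 also: growth inhibition of the NMC-G1 cell line, measured with a cell viability read-out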
Description: SANGER: Inhibition of human NMC-G1 cell growth in a cell viability assay.

NTERA-2-cl-D1 = tested on: NTERA-2-cl-D1;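 also: inhibition of cell growth, measured with a cell viability assay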
Description: SANGER: Inhibition of human NTERA-S-cl-D1 cell growth in a cell viability assay.

OMC-1 = tested on: OMC-1;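 also: growth inhibition of the OMC-1 cell line, measured by a cell viability assay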
Description: SANGER: Inhibition of human OMC-1 cell growth in a cell viability assay.

ONS-76 = tested on: ONS-76;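 also: growth inhibition of human ONS-76 cells, read out with a cell viability assay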
Description: SANGER: Inhibition of human ONS-76 cell growth in a cell viability assay.

RPMI-8226 = tested on: RPMI-8226
Description: SANGER: Inhibition of human RPMI-8226 cell growth in a cell viability assay.

SCH = tested on: SCH;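 also: growth inhibition of human SCH cells, read out in a cell viability assay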
Description: SANGER: Inhibition of human SCH cell growth in a cell viability assay.

SF-268 = tested on: SF-268;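 also: growth inhibition of SF-268 cells determined with a cell viability assay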
Description: SANGER: Inhibition of human SF268 cell growth in a cell viability assay.

SJSA-1 = tested on: SJSA-1;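 also: growth inhibition of human SJSA-1 cells, read out through a cell viability measurement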
Description: SANGER: Inhibition of human SJSA-1 cell growth in a cell viability assay.

SK-MEL-1 = tested on: SK-MEL-1;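 also: growth inhibition of human SK-MEL-1 cells, read out by a cell viability assay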
Description: SANGER: Inhibition of human SK-MEL-1 cell growth in a cell viability assay.

SK-NEP-1 = tested on: SK-NEP-1;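 also: growth inhibition of human SK-NEP-1 cells, read out by a cell viability assay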
Description: SANGER: Inhibition of human SK-NEP-1 cell growth in a cell viability assay.

SK-PN-DW = tested on: SK-PN-DW;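 also: growth inhibition measured with a viability assay on these cells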
Description: SANGER: Inhibition of human SK-PN-DW cell growth in a cell viability assay.

SNU-C2B = tested on: SNU-C2B;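 also: cell viability readout used to measure compound-driven suppression of SNU-C2B cell proliferation, IC50 marking half-maximal growth inhibition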
Description: SANGER: Inhibition of human SNU-C2B cell growth in a cell viability assay.

SW872 = tested on: SW872;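 also: growth inhibition of SW872 cells, read out by a viability assay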
Description: SANGER: Inhibition of human SW872 cell growth in a cell viability assay.

SW982 = tested on: SW982;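 also: growth inhibition of SW982 cells, read out with a cell viability assay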
Description: SANGER: Inhibition of human SW982 cell growth in a cell viability assay.

697 = tested on: 697
Description: SANGER: Inhibition of human 697 cell growth in a cell viability assay.

8-MG-BA = tested on: 8-MG-BA;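 also: growth inhibition of 8-MG-BA cells, read out with a cell viability assay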
Description: SANGER: Inhibition of human 8-MG-BA cell growth in a cell viability assay.

A101D = tested on: A101D;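 also: growth inhibition of the cell line, measured with a viability assay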
Description: SANGER: Inhibition of human A101D cell growth in a cell viability assay.

A4-Fuk = tested on: A4-Fuk;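 also: growth inhibition of A4-Fuk cells, read out by a cell viability assay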
Description: SANGER: Inhibition of human A4-Fuk cell growth in a cell viability assay.

ACN = tested on: ACN;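 also: growth inhibition of the human ACN cell line, read out via cell viability testing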
Description: SANGER: Inhibition of human ACN cell growth in a cell viability assay.

AM-38 = tested on: AM-38;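 also: growth inhibition of AM-38 cells of human origin, read out by a cell viability assay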
Description: SANGER: Inhibition of human AM-38 cell growth in a cell viability assay.

ATN-1 = tested on: ATN-1;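 also: growth inhibition of human ATN-1 cells, read out with a cell viability assay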
Description: SANGER: Inhibition of human ATN-1 cell growth in a cell viability assay.

BE-13 = tested on: BE-13;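 also: growth inhibition of human BE-13 cells, measured with a cell viability assay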
Description: SANGER: Inhibition of human BE-13 cell growth in a cell viability assay.

TE-10 = tested on: TE-10;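 also: growth inhibition of TE-10 cells, measured by a cell viability assay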
Description: SANGER: Inhibition of human TE-10 cell growth in a cell viability assay.

TE-5 = tested on: TE-5;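 also: inhibition of cell growth, read out by a cell viability assay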
Description: SANGER: Inhibition of human TE-5 cell growth in a cell viability assay.

TGBC1TKB = tested on: TGBC1TKB
Description: SANGER: Inhibition of human TGBC1TKB cell growth in a cell viability assay.

U-266 = tested on: U-266
Description: SANGER: Inhibition of human U-266 cell growth in a cell viability assay.

VA-ES-BJ = tested on: VA-ES-BJ
Description: SANGER: Inhibition of human VA-ES-BJ cell growth in a cell viability assay.

no-11 = tested on: no-11
Description: SANGER: Inhibition of human no-11 cell growth in a cell viability assay.

CCRF-CEM = tested on: CCRF-CEM
Description: SANGER: Inhibition of human CCRF-CEM cell growth in a cell viability assay.

CGTH-W-1 = tested on: CGTH-W-1
Description: SANGER: Inhibition of human CGTH-W-1 cell growth in a cell viability assay.

CC[C@]1(O)C[C@@H]2CN(CCc3c([nH]c4ccccc34)[C@@](C(=O)OC)(c3cc4c(cc3OC)N(C)[C@H]3[C@@](O)(C(=O)OC)[C@H](OC(C)=O)[C@]5(CC)C=CCN6CC[C@]43[C@@H]65)C2)C1 [VINBLASTINE]
pIC50 (COLO-824): < 7.00 | pIC50 (CTB-1): 8.79 | pIC50 (DU-4475): < 7.00 | pIC50 (EC-GI-10): 8.45 | pIC50 (ES1): 8.33 | pIC50 (EW-1): 8.50 | pIC50 (EW-16): 8.11 | pIC50 (GI-1): 8.36 | pIC50 (GOTO): 8.09 | pIC50 (HT): 7.81 | pIC50 (J-RT3-T3-5): 9.10 | pIC50 (JVM-2): < 7.00 | pIC50 (K562): < 7.00 | pIC50 (K5): 8.33 | pIC50 (KALS-1): 8.11 | pIC50 (KINGS-1): 8.03 | pIC50 (KLE): < 7.00 | pIC50 (KM-H2): 8.27 | pIC50 (KNS-42): 7.73 | pIC50 (KS-1): 8.10 | pIC50 (KURAMOCHI): < 7.00 | pIC50 (LAN-6): 7.32 | pIC50 (LC-2-ad): 8.10 | pIC50 (LOX IMVI): 8.16 | pIC50 (LS-1034): < 7.00 | pIC50 (MEG-01): 7.83 | pIC50 (MFH-ino): < 7.00 | pIC50 (MMAC-SF): 7.82 | pIC50 (MN-60): 7.53 | pIC50 (MOLT-16): 8.61 | pIC50 (NCI-H1581): 8.37 | pIC50 (NCI-H1648): 8.26 | pIC50 (NCI-H1838): < 7.00 | pIC50 (NCI-H209): 7.88 | pIC50 (NCI-H226): 7.86 | pIC50 (NCI-H69): < 7.00 | pIC50 (NMC-G1): 8.07 | pIC50 (NTERA-2-cl-D1): 8.23 | pIC50 (OMC-1): < 7.00 | pIC50 (ONS-76): 8.43 | pIC50 (RPMI-8226): 8.54 | pIC50 (SCH): 7.53 | pIC50 (SF-268): 7.79 | pIC50 (SJSA-1): 7.92 | pIC50 (SK-MEL-1): 7.17 | pIC50 (SK-NEP-1): 8.82 | pIC50 (SK-PN-DW): 8.21 | pIC50 (SNU-C2B): 7.61 | pIC50 (SW872): < 7.00 | pIC50 (SW982): 8.05 | pIC50 697: 8.21 | pIC50 (8-MG-BA): 8.20 | pIC50 (A101D): 7.50 | pIC50 (A4-Fuk): 8.73 | pIC50 (ACN): 7.39 | pIC50 (AM-38): 7.43 | pIC50 (ATN-1): 8.99 | pIC50 (BE-13): 8.85 | pIC50 (TE-10): 7.67 | pIC50 (TE-5): 8.21 | pIC50 (TGBC1TKB): 7.51 | pIC50 (U-266): 7.97 | pIC50 (VA-ES-BJ): 8.49 | pIC50 (no-11): 7.41 | pIC50 (CCRF-CEM): 8.00 | pIC50 (CGTH-W-1): 8.26
